Test results from patent US20020137929A1, “1 - (3-heterocyclylphenyl) isothiourea, -isourea, -guanidine and -amidine herbicidal agents” (Intellectual Property Department, BASF Aktiengesellschaft, priority 1998, published 2002).

Experiments:
[1] = system: AMBEL (Ragweed, Common); experiment: Postemergence herbicidal evaluation; format: in vivo, Ambrosia artemisifolia
How it was run: (§1)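 Herbicidal effect was judged by eye on a 0–9 scale covering stand, vigor, deformity, size and chlorosis, compared with controls, four to five weeks after seedlings about two weeks old were sprayed (40 psi, ~0.0156–0.500 kg/ha).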

[2] = system: CASOB (Sicklepod); experiment: Postemergence herbicidal evaluation; format: in vivo, Cassia obtusifolia
How it was run: as §1

[3] = system: CHEAL (Lambsquarters, Common); experiment: Postemergence herbicidal evaluation; format: in vivo, Chenopodium album
How it was run: as §1

[4] = system: IPOHE (Morningglory, Ivyleaf); experiment: Postemergence herbicidal evaluation; format: in vivo, Ipomoea hederacea
How it was run: as §1

[5] = system: ECHCG (Barnyardgrass); experiment: Postemergence herbicidal evaluation; format: in vivo, Echinochloa crus-galli
How it was run: as §1

[6] = system: GLXMAW (Soybean, Williams); experiment: Postemergence herbicidal evaluation; format: in vivo, Glycine max, (L.) Merr. cv Williams
How it was run: as §1

[7] = system: TRZAWR (Wheat, Winter, cv Riband); experiment: Postemergence herbicidal evaluation; format: in vivo, Triticum aestivum
How it was run: as §1

[8] = system: ABUTH (Velvetleaf); experiment: Preemergence herbicidal evaluation; format: in vivo, Abutilon theophrasti; conditions: rated 4-5 weeks after treatment
How it was run: (§2)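 Steps: mix seeds into potting soil; plant atop ~1 inch soil; spray compound in aqueous acetone (~0.0156-0.500 kg/ha equivalent); maintain in greenhouse with watering; rate visually 0-9 versus control at 4-5 weeks.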

[9] = system: AMBEL (Ragweed, Common); experiment: Preemergence herbicidal evaluation; format: in vivo, Ambrosia artemisifolia; conditions: rated 4-5 weeks after treatment
How it was run: as §2

[10] = system: CASOB (Sicklepod); experiment: Preemergence herbicidal evaluation; format: in vivo, Cassia obtusifolia; conditions: rated 4-5 weeks after treatment
How it was run: as §2

[11] = system: CHEAL (Lambsquarters, Common); experiment: Preemergence herbicidal evaluation; format: in vivo, Chenopodium album; conditions: rated 4-5 weeks after treatment
How it was run: as §2

[12] = system: IPOHE (Morningglory, Ivyleaf); experiment: Preemergence herbicidal evaluation; format: in vivo, Ipomoea hederacea; conditions: rated 4-5 weeks after treatment
How it was run: as §2

[13] = system: GLXMAW (Soybean, Williams); experiment: Preemergence herbicidal evaluation; format: in vivo, Glycine max, (L.) Merr. cv Williams; conditions: rated 4-5 weeks after treatment
How it was run: as §2

[14] = system: ORYSAT (Rice, Tebonnet); experiment: Preemergence herbicidal evaluation; format: in vivo, Oryza sativa, (L.) Tebonnet; conditions: rated 4-5 weeks after treatment
How it was run: as §2

[15] = system: MOOVA (Monochoria); experiment: Preemergence weed control under flooded paddy conditions; format: in vivo, Monochoria vaginalis; conditions: rated 3-4 weeks after treatment
How it was run: (§3)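 Ratings on a 0-9 visual scale cover stand, vigor, malformation, size, chlorosis and overall appearance relative to a control, taken three to four weeks post-treatment. Application was into flood water over freshly sown silt loam at roughly 0.0313 to 0.500 kg/ha.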

[16] = system: SAGPY (Arrowhead (Pygmaea)); experiment: as above; format: in vivo, Sagittaria pygmaea; conditions: rated 3-4 weeks after treatment
How it was run: as §3

COC(=O)CCCN1C(=O)CSC1=Nc1cc(-n2c(=O)cc(C(F)(F)F)n(C)c2=O)c(F)cc1Cl [Compound 29, Methyl 2-{{2-chloro-5-[3,6-dihydro-3-methyl-2,6-dioxo-4-(trifluoromethyl)-1(2H)-pyrimidinyl]-4-fluorophenyl}imino}-4-oxo-3-thiazolidinebutyrate]
Postemergence herbicidal rating AMBEL ([1]; Rate 0.0158 kg/ha): 1.0 | Postemergence herbicidal rating AMBEL ([1]; Rate 0.0315 kg/ha): 4.0 | Postemergence herbicidal rating AMBEL ([1]; Rate 0.0630 kg/ha): 9.0 | Postemergence herbicidal rating CASOB ([2]; Rate 0.0158 kg/ha): 0.0 | Postemergence herbicidal rating CASOB ([2]; Rate 0.0315 kg/ha): 0.0 | Postemergence herbicidal rating CASOB ([2]; Rate 0.0630 kg/ha): 0.0 | Postemergence herbicidal rating CHEAL ([3]; Rate 0.0158 kg/ha): 1.0 | Postemergence herbicidal rating CHEAL ([3]; Rate 0.0315 kg/ha): 1.0 | Postemergence herbicidal rating CHEAL ([3]; Rate 0.0630 kg/ha): 5.0 | Postemergence herbicidal rating IPOHE ([4]; Rate 0.0158 kg/ha): 3.0 | Postemergence herbicidal rating IPOHE ([4]; Rate 0.0315 kg/ha): 9.0 | Postemergence herbicidal rating IPOHE ([4]; Rate 0.0630 kg/ha): 9.0 | Postemergence herbicidal rating ECHCG ([5]; Rate 0.0158 kg/ha): 0.0 | Postemergence herbicidal rating ECHCG ([5]; Rate 0.0315 kg/ha): 1.0 | Postemergence herbicidal rating ECHCG ([5]; Rate 0.0630 kg/ha): 4.0 | Postemergence herbicidal rating GLXMAW ([6]; Rate 0.0158 kg/ha): 6.5 | Postemergence herbicidal rating GLXMAW ([6]; Rate 0.0315 kg/ha): 7.5 | Postemergence herbicidal rating GLXMAW ([6]; Rate 0.0630 kg/ha): 8.0 | Postemergence herbicidal rating TRZAWR ([7]; Rate 0.0158 kg/ha): 4.5 | Postemergence herbicidal rating TRZAWR ([7]; Rate 0.0315 kg/ha): 5.0 | Postemergence herbicidal rating TRZAWR ([7]; Rate 0.0630 kg/ha): 5.5 | Preemergence herbicidal rating ABUTH ([8]; rate 0.0625 kg/ha): 9.0 | Preemergence herbicidal rating ABUTH ([8]; rate 0.1250 kg/ha): 9.0 | Preemergence herbicidal rating ABUTH ([8]; rate 0.2500 kg/ha): 9.0 | Preemergence herbicidal rating AMBEL ([9]; rate 0.0625 kg/ha): 0.0 | Preemergence herbicidal rating AMBEL ([9]; rate 0.1250 kg/ha): 0.0 | Preemergence herbicidal rating AMBEL ([9]; rate 0.2500 kg/ha): 0.0 | Preemergence herbicidal rating CASOB ([10]; rate 0.0625 kg/ha): 0.0 | Preemergence herbicidal rating CASOB ([10]; rate 0.1250 kg/ha): 0.0 | Preemergence herbicidal rating CASOB ([10]; rate 0.2500 kg/ha): 0.0 | Preemergence herbicidal rating CHEAL ([11]; rate 0.0625 kg/ha): 0.0 | Preemergence herbicidal rating CHEAL ([11]; rate 0.1250 kg/ha): 0.0 | Preemergence herbicidal rating CHEAL ([11]; rate 0.2500 kg/ha): 0.0 | Preemergence herbicidal rating IPOHE ([12]; rate 0.0625 kg/ha): 0.0 | Preemergence herbicidal rating IPOHE ([12]; rate 0.1250 kg/ha): 0.0 | Preemergence herbicidal rating IPOHE ([12]; rate 0.2500 kg/ha): 4.0 | Preemergence herbicidal rating GLXMAW ([13]; rate 0.0625 kg/ha): 0.0 | Preemergence herbicidal rating GLXMAW ([13]; rate 0.1250 kg/ha): 0.0 | Preemergence herbicidal rating GLXMAW ([13]; rate 0.2500 kg/ha): 2.0 | Preemergence herbicidal rating ORYSAT ([14]; rate 0.0625 kg/ha): 0.0 | Preemergence herbicidal rating ORYSAT ([14]; rate 0.1250 kg/ha): 0.0 | Preemergence herbicidal rating ORYSAT ([14]; rate 0.2500 kg/ha): 3.0 | Herbicidal rating MOOVA ([15]; 0.0313 kg/ha): 0.0 | Herbicidal rating MOOVA ([15]; 0.0625 kg/ha): 0.0 | Herbicidal rating MOOVA ([15]; 0.1250 kg/ha): 0.0 | Herbicidal rating MOOVA ([15]; 0.2500 kg/ha): 0.0 | Herbicidal rating SAGPY ([16]; 0.0313 kg/ha): 0.0 | Herbicidal rating SAGPY ([16]; 0.0625 kg/ha): 0.0 | Herbicidal rating SAGPY ([16]; 0.1250 kg/ha): 0.0 | Herbicidal rating SAGPY ([16]; 0.2500 kg/ha): 0.0

Cn1c(C(F)(F)F)cc(=O)n(-c2cc(N=C3NC(=O)CS3)c(Cl)cc2F)c1=O [Compound 39, 3-{4-Chloro-2-fluoro-5-[(4-oxo-2-thiazolidinylidene)amino]phenyl}-1-methyl-6-(trifluoromethyl)-2,4(1H,3H)-pyrimidinedione]
Postemergence herbicidal rating AMBEL ([1]; Rate 0.0158 kg/ha): 0.0 | Postemergence herbicidal rating AMBEL ([1]; Rate 0.0315 kg/ha): 3.0 | Postemergence herbicidal rating AMBEL ([1]; Rate 0.0630 kg/ha): 7.0 | Postemergence herbicidal rating CASOB ([2]; Rate 0.0158 kg/ha): 0.0 | Postemergence herbicidal rating CASOB ([2]; Rate 0.0315 kg/ha): 0.0 | Postemergence herbicidal rating CASOB ([2]; Rate 0.0630 kg/ha): 0.0 | Postemergence herbicidal rating CHEAL ([3]; Rate 0.0158 kg/ha): 1.0 | Postemergence herbicidal rating CHEAL ([3]; Rate 0.0315 kg/ha): 1.0 | Postemergence herbicidal rating CHEAL ([3]; Rate 0.0630 kg/ha): 1.0 | Postemergence herbicidal rating IPOHE ([4]; Rate 0.0158 kg/ha): 2.0 | Postemergence herbicidal rating IPOHE ([4]; Rate 0.0315 kg/ha): 7.0 | Postemergence herbicidal rating IPOHE ([4]; Rate 0.0630 kg/ha): 7.0 | Postemergence herbicidal rating ECHCG ([5]; Rate 0.0158 kg/ha): 0.0 | Postemergence herbicidal rating ECHCG ([5]; Rate 0.0315 kg/ha): 0.0 | Postemergence herbicidal rating ECHCG ([5]; Rate 0.0630 kg/ha): 0.0 | Postemergence herbicidal rating GLXMAW ([6]; Rate 0.0158 kg/ha): 4.5 | Postemergence herbicidal rating GLXMAW ([6]; Rate 0.0315 kg/ha): 5.0 | Postemergence herbicidal rating GLXMAW ([6]; Rate 0.0630 kg/ha): 5.0 | Postemergence herbicidal rating TRZAWR ([7]; Rate 0.0158 kg/ha): 2.0 | Postemergence herbicidal rating TRZAWR ([7]; Rate 0.0315 kg/ha): 1.5 | Postemergence herbicidal rating TRZAWR ([7]; Rate 0.0630 kg/ha): 2.5 | Preemergence herbicidal rating ABUTH ([8]; rate 0.0156 kg/ha): 0.0 | Preemergence herbicidal rating ABUTH ([8]; rate 0.0313 kg/ha): 0.0 | Preemergence herbicidal rating ABUTH ([8]; rate 0.0625 kg/ha): 1.0 | Preemergence herbicidal rating ABUTH ([8]; rate 0.1250 kg/ha): 9.0 | Preemergence herbicidal rating ABUTH ([8]; rate 0.2500 kg/ha): 9.0 | Preemergence herbicidal rating AMBEL ([9]; rate 0.0156 kg/ha): 0.0 | Preemergence herbicidal rating AMBEL ([9]; rate 0.0313 kg/ha): 0.0 | Preemergence herbicidal rating AMBEL ([9]; rate 0.0625 kg/ha): 0.0 | Preemergence herbicidal rating AMBEL ([9]; rate 0.1250 kg/ha): 6.0 | Preemergence herbicidal rating AMBEL ([9]; rate 0.2500 kg/ha): 7.0 | Preemergence herbicidal rating CASOB ([10]; rate 0.0313 kg/ha): 0.0 | Preemergence herbicidal rating CASOB ([10]; rate 0.0625 kg/ha): 0.0 | Preemergence herbicidal rating CASOB ([10]; rate 0.1250 kg/ha): 2.0 | Preemergence herbicidal rating CASOB ([10]; rate 0.2500 kg/ha): 1.0 | Preemergence herbicidal rating CHEAL ([11]; rate 0.0156 kg/ha): 1.0 | Preemergence herbicidal rating CHEAL ([11]; rate 0.0313 kg/ha): 0.0 | Preemergence herbicidal rating CHEAL ([11]; rate 0.0625 kg/ha): 7.0 | Preemergence herbicidal rating CHEAL ([11]; rate 0.1250 kg/ha): 7.0 | Preemergence herbicidal rating CHEAL ([11]; rate 0.2500 kg/ha): 9.0 | Preemergence herbicidal rating IPOHE ([12]; rate 0.0156 kg/ha): 0.0 | Preemergence herbicidal rating IPOHE ([12]; rate 0.0313 kg/ha): 0.0 | Preemergence herbicidal rating IPOHE ([12]; rate 0.0625 kg/ha): 1.0 | Preemergence herbicidal rating IPOHE ([12]; rate 0.1250 kg/ha): 1.0 | Preemergence herbicidal rating IPOHE ([12]; rate 0.2500 kg/ha): 9.0 | Preemergence herbicidal rating GLXMAW ([13]; rate 0.0156 kg/ha): 0.0 | Preemergence herbicidal rating GLXMAW ([13]; rate 0.0313 kg/ha): 0.0 | Preemergence herbicidal rating GLXMAW ([13]; rate 0.0625 kg/ha): 0.0 | Preemergence herbicidal rating GLXMAW ([13]; rate 0.1250 kg/ha): 5.0 | Preemergence herbicidal rating GLXMAW ([13]; rate 0.2500 kg/ha): 7.0 | Preemergence herbicidal rating ORYSAT ([14]; rate 0.0156 kg/ha): 0.0 | Preemergence herbicidal rating ORYSAT ([14]; rate 0.0313 kg/ha): 0.0 | Preemergence herbicidal rating ORYSAT ([14]; rate 0.0625 kg/ha): 0.0 | Preemergence herbicidal rating ORYSAT ([14]; rate 0.1250 kg/ha): 1.0 | Preemergence herbicidal rating ORYSAT ([14]; rate 0.2500 kg/ha): 2.0 | Herbicidal rating MOOVA ([15]; 0.0313 kg/ha): 9.0 | Herbicidal rating MOOVA ([15]; 0.0625 kg/ha): 9.0 | Herbicidal rating MOOVA ([15]; 0.1250 kg/ha): 9.0 | Herbicidal rating MOOVA ([15]; 0.2500 kg/ha): 9.0 | Herbicidal rating SAGPY ([16]; 0.0313 kg/ha): 0.0 | Herbicidal rating SAGPY ([16]; 0.0625 kg/ha): 0.0 | Herbicidal rating SAGPY ([16]; 0.1250 kg/ha): 0.0 | Herbicidal rating SAGPY ([16]; 0.2500 kg/ha): 4.0
